Test system: NCI-H226
Assay: 72H TEAD Proliferation Assay (Cell Titer Glo 2.0)
Type: cell-based
Details: Homo sapiens, NCI-H226, 72 h, CTG 2.0, cell line not given (NCI-H226 responsive, NCI-H28 non-responsive)
Method in brief: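 Growth read-out is ATP luminescence (CellTiter-Glo 2.0) after 72 h compound exposure, corrected for no-CTG background and day-0 values, with GI50 from nonlinear regression. Sensitive line NCI-H226 (NF2-deficient); non-responsive NCI-H28 (NF2 wild type) distinguishes TEAD-driven from nonspecific growth inhibition.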

Row | Structure (SMILES) | GI50 [nM]
1 | COc1cc(-c2ccc(C(F)(F)F)cc2)nc2cc(-c3nnc(C)[nH]3)ccc12 [I-413, 4-methoxy-7-(5-methyl-4H-1,2,4-triazol-3-yl)-2-(4-(trifluoromethyl)phenyl)quinolone] | 5000 to 10000
2 | O=C(O)c1ccc2c(c1)nc(C1CCOCC1)c1nccn12 [I-69, 4-(Tetrahydro-2H-pyran-4-yl)imidazo[1,2-a]quinoxaline-7-carboxylic acid] | > 10000
3 | O=C(/C=C/CF)NCc1cn2ccnc2c(-c2ccc(C(F)(F)F)cc2F)n1 [I-291, (E)-4-fluoro-N-((8-(2-fluoro-4-(trifluoromethyl)phenyl)imidazo[1,2-a]pyrazin-6-yl)methyl)but-2-enamide] | ≤ 1000
4 | C=CC(=O)NCc1cn2ccnc2c(-c2ccc(OC(F)(F)F)cc2)n1 [I-173, N-((8-(4-(trifluoromethoxy)phenyl)imidazo[1,2-a]pyrazin-6-yl)methyl)acrylamide] | ≤ 1000
5 | O=C(O)c1ccc2c(c1)nc(C13CC(C(F)(F)F)(C1)C3)c1cccn12 [I-272, 4-(3-(trifluoromethyl)bicyclo[1.1.1]pentan-1-yl)pyrrolo[1,2-a]quinoxaline-7-carboxylic acid] | 1000 to 5000
6 | O=C(O)c1ccc2c(c1)nc(OC1CCC(C(F)(F)F)CC1)c1cccn12 (mixture of isomers) [I-127, 4-((4-(Trifluoromethyl)cyclohexyl)oxy)pyrrolo[1,2-a]quinoxaline-7-carboxylic acid] | 1000 to 5000
7 | O=C(O)c1ccc2c(c1)nc(-c1ccc(C3(C(F)(F)F)CC3)cc1)c1cccn12 [I-196, 4-(4-(1-(trifluoromethyl)cyclopropyl)phenyl)pyrrolo[1,2-a]quinoxaline-7-carboxylic acid] | 1000 to 5000
8 | O=C(O)c1ccc2c(c1)nc(N1CCC(F)(F)CC1)c1cccn12 [I-39, 4-(4,4-Difluoropiperidin-1-yl) pyrrolo[1,2-a]quinoxaline-7-carboxylic acid] | > 10000
9 | COc1cc(-c2ccc(C(F)(F)F)cc2)nc2cc(C(=O)N[C@@H](C)c3ccccc3)ccc12 [I-351, (S)-4-methoxy-N-(1-phenylethyl)-2-(4-(trifluoromethyl)phenyl)quinoline-7-carboxamide] | ≤ 1000
10 | CC[C@H](CO)NC(=O)c1ccc2c(OC)cc(-c3ccc(C(F)(F)F)cc3OC)nc2c1 [I-342, (R)—N-(1-hydroxybutan-2-yl)-4-methoxy-2-(2-methoxy-4-(trifluoromethyl)phenyl)quinoline-7-carboxamide] | 1000 to 5000
11 | C=C(F)C(=O)NCc1cn2ccnc2c(-c2ccc(C(F)(F)F)cc2)n1 [I-178, 2-Fluoro-N-((8-(4-(trifluoromethyl)phenyl)imidazo[1,2-a]pyrazin-6-yl)methyl)acrylamide] | ≤ 1000
12 | CN(CCCC(F)(F)F)c1nc2cc(C(=O)O)ccc2n2cccc12 [I-125, 4-(Methyl(4,4,4-trifluorobutyl)amino)pyrrolo[1,2-a]quinoxaline-7-carboxylic acid] | > 10000
13 | C=C(F)C(=O)NCc1cc2ccccc2c(-c2ccc(C(F)(F)F)cc2)n1 [I-168, 2-Fluoro-N-((1-(4-(trifluoromethyl)phenyl)isoquinolin-3-yl)methyl)acrylamide] | ≤ 1000
14 | O=C(O)c1ccc2c(c1)nc(N1CCC3(CCC3)CC1)c1cccn12 [I-6, 4-(7-Azaspiro[3.5]nonan-7-yl)pyrrolo[1,2-a]quinoxaline-7-carboxylic acid] | ≤ 1000
15 | O=C(O)c1ccc2c(c1)nc(-c1ccncc1)c1cccn12 [I-47, 4-(Pyridin-4-yl)pyrrolo[1,2-a]quinoxaline-7-carboxylic acid] | > 10000
16 | O=C(O)c1ccc2c(c1)nc(N1CCC3(CCOC3)CC1)c1cccn12 [I-35, 4-(2-Oxa-8-azaspiro[4.5]decan-8-yl)pyrrolo[1,2-a]quinoxaline-7-carboxylic acid] | 1000 to 5000
17 | O=C(O)c1ccc2c(c1)nc(Oc1cccc(C(F)(F)F)c1)c1cccn12 [I-24, 4-(3-(Trifluoromethyl)phenoxy) pyrrolo[1,2-a] quinoxaline-7-carboxylic acid] | 1000 to 5000
18 | COc1cc(-c2ccc(C(F)(F)F)cc2)nc2cc(C(=O)N3CCC3CO)ccc12 (single isomer, unassigned) [I-372, (2-(hydroxymethyl)azetidin-1-yl) (4-methoxy-2-(4-(trifluoromethyl)phenyl)quinolin-7-yl)methanone] | 1000 to 5000
19 | C=CC(=O)NCc1cn2ccnc2c(Nc2ccc(C(F)(F)F)cn2)n1 [I-170, N-((8-((5-(trifluoromethyl)pyridin-2-yl)amino)imidazo[1,2-a]pyrazin-6-yl)methyl)acrylamide] | ≤ 1000

Next, values leading:

Row | GI50 [nM] | Structure (SMILES)
20 | ≤ 1000 | COc1nc(-c2ccc(C(F)(F)F)cc2)nc2cc(C(=O)N[C@H](C)CO)ccc12 [I-434, (R)—N-(1-hydroxypropan-2-yl)-4-methoxy-2-(4-(trifluoromethyl)phenyl)quinazoline-7-carboxamide]
21 | ≤ 1000 | C=CC(=O)NCc1cn2cccc2c(-c2ccc(C(F)(F)F)cc2)n1 [I-319, N-((1-(4-(trifluoromethyl)phenyl)pyrrolo[1,2-a]pyrazin-3-yl)methyl)acrylamide]
22 | 5000 to 10000 | CC(C)(C)c1ccc(-c2nc3cc(C(=O)O)cc(F)c3n3ccnc23)cc1 [I-72, 4-(4-(tert-Butyl)phenyl)-9-fluoroimidazo[1,2-a]quinoxaline-7-carboxylic acid]
23 | > 10000 | CC(C)(C)c1ccc(-c2nc(C(=O)O)cn3ccnc23)cc1 [I-147, 8-(4-(tert-Butyl)phenyl)imidazo[1,2-a]pyrazine-6-carboxylic acid]
24 | > 10000 | CC(C)(C)c1ccc(-c2cnc3ccc(C(=O)O)cc3n2)cc1 [I-157, 3-(4-(tert-Butyl)phenyl)quinoxaline-6-carboxylic acid]
25 | 1000 to 5000 | Cc1cc(-c2ccc(OC(F)(F)F)cc2)nc2cc(C(=O)O)ccc12 [I-256, 4-methyl-2-(4-(trifluoromethoxy)phenyl)quinoline-7-carboxylic acid]
26 | 1000 to 5000 | CN(C)CC(=O)Nc1ccc2c(c1)nc(-c1ccc(C(C)(C)C)cc1)c1cccn12 [I-205, N-(4-(4-(tert-butyl)phenyl)pyrrolo[1,2-a]quinoxalin-7-yl)-2-(dimethylamino)acetamide]
27 | ≤ 1000 | C=CC(=O)Nc1ccc2c(C)cc(-c3ccc(C(C)(C)C)cc3)nc2c1 [I-86, N-(2-(4-(tert-Butyl)phenyl)-4-methylquinolin-7-yl)acrylamide]
28 | 1000 to 5000 | C=CC(=O)Nc1ccc2ncc(-c3ccc(C(C)(C)C)cc3)nc2c1 [I-92, N-(3-(4-(tert-butyl)phenyl)quinoxalin-6-yl)acrylamide]
29 | > 10000 | CC(C)(C)c1ccc(-c2nc3cc(C(=O)NS(=O)(=O)C4CC4)ccc3n3cccc23)cc1 [I-124, 4-(4-(tert-Butyl)phenyl)-N-(cyclopropylsulfonyl)pyrrolo[1,2-a]quinoxaline-7-carboxamide]
30 | 1000 to 5000 | COc1cc(-c2ccc(C(F)(F)F)cc2)nc2cc(S(N)(=O)=O)ccc12 [I-416, 4-Methoxy-2-(4-(trifluoromethyl)phenyl)quinoline-7-sulfonamide]
31 | > 10000 | CC(C)(C)c1ccc(CCn2ccc3cc(C(=O)O)ccc32)cc1 [Compound I-161]
32 | ≤ 1000 | CCNS(=O)(=O)c1ccc2c(OC)cc(-c3ccc(C(F)(F)F)cc3)nc2c1 [I-417, N-ethyl-4-methoxy-2-(4-(trifluoromethyl)phenyl)quinoline-7-sulfonamide]
33 | ≤ 1000 | C=CC(=O)Nc1ccc2c(C)cc(-c3ccc(C(F)(F)F)cc3)nc2c1 [I-85, N-(4-Methyl-2-(4-(trifluoromethyl)phenyl)quinolin-7-yl)acrylamide]
34 | ≤ 1000 | O=C(O)c1ccc2c(OC(F)F)cc(-c3ccc(C(F)(F)F)cc3)nc2c1 [I-331, 4-(Difluoromethoxy)-2-(4-(trifluoromethyl)phenyl)quinoline-7-carboxylic acid]
35 | ≤ 1000 | CC(C)Oc1cc(-c2ccc(C(F)(F)F)cc2)nc2cc(C(=O)O)ccc12 [I-394, 4-isopropoxy-2-(4-(trifluoromethyl)phenyl)quinoline-7-carboxylic acid]
36 | ≤ 1000 | C=CC(=O)NCc1cc2ccccc2c(-c2ccc(C(F)(F)F)nc2)n1 [I-302, N-((1-(6-(trifluoromethyl)pyridin-3-yl)isoquinolin-3-yl)methyl)acrylamide]
37 | ≤ 1000 | Cc1cc(-c2ccc(C(F)(F)F)cc2)nc2cc(C(=O)N[C@H](C)CO)ccc12 [I-261, (R)—N-(1-hydroxypropan-2-yl)-4-methyl-2-(4-(trifluoromethyl)phenyl)quinoline-7-carboxamide]
38 | ≤ 1000 | C=CC(=O)Nc1ccc2c(C)cc(-c3ccc(C(F)(F)F)cn3)nc2c1 [I-252, N-(4-methyl-2-(5-(trifluoromethyl)pyridin-2-yl)quinolin-7-yl)acrylamide]
39 | ≤ 1000 | CCOc1cc(-c2ccc(C(F)(F)F)cc2)nc2cc(C(=O)O)ccc12 [I-393, 4-ethoxy-2-(4-(trifluoromethyl)phenyl)quinoline-7-carboxylic acid]
40 | ≤ 1000 | C=CC(=O)NCc1cn2ccnc2c(Oc2cccc(C(C)(C)C)c2)n1 [I-441, N-((8-(3-(tert-butyl)phenoxy)imidazo[1,2-a]pyrazin-6-yl)methyl)acrylamide]
41 | ≤ 1000 | C=CC(=O)NCc1nc(-c2ccc(C(F)(F)F)cc2)cn2ccnc12 [I-408, N-((6-(4-(trifluoromethyl)phenyl)imidazo[1,2-a]pyrazin-8-yl)methyl)acrylamide]
42 | 1000 to 5000 | CC(C)(C)c1ccc(-c2nc3cc(NC(=O)CO)ccc3n3cccc23)cc1 [I-203, N-(4-(4-(tert-butyl)phenyl)pyrrolo[1,2-a]quinoxalin-7-yl)-2-hydroxyacetamide]
43 | ≤ 1000 | O=C(O)c1ccc2c(OCC3CC3)cc(-c3ccc(C(F)(F)F)cc3)nc2c1 [I-375, 4-(cyclopropylmethoxy)-2-(4-(trifluoromethyl)phenyl)quinoline-7-carboxylic acid]
44 | 1000 to 5000 | C=CC(=O)NCc1cn2ccnc2c(-c2ccc(F)cc2)n1 [I-110, N-((8-(4-fluorophenyl)imidazo[1,2-a]pyrazin-6-yl)methyl)acrylamide]

Reference: patent US12655150B2 (Cedilla Therapeutics, Inc., priority 2021, dated 2026)
